In patent EP0035728A1, “Cytostatically active amino-polyols, medicaments containing these compounds and their use” (Henkel Kommanditgesellschaft auf Aktien, priority 1980, dated 1981):

How the values were obtained:
[1] = tested on: Tumorart P 388 (Leukämie); test: P 388 leukemia survival test in mice (NCI protocol 1200), T/C; assay type: in vivo, Mäusen; conditions: nine doses, P 388 set i.p. with 10^6 cells/mouse, survival vs untreated controls
Protocol: Die T/C-Werte dieser Verbindung bei ihrer Austestung am TumorP 388 (Leukämie) unter Standardprüfbedingungen betragen 166 % (100 mg/kg) bzw. 165 % (50 mg/kg).
Die nachfolgenden Versuche wurden durchgeführt nach Testvorschriften des National Cancer Intitute Bethesda; Maryland 200014, veröffentlicht in "Cancer Chemotherapy Reports" Part 3, September 1972, Vol. 3, Nr. 2. Als Wirksubstanz wurde das Di-(2-hydroxy-3-brompropan)-glucamin des Beispiels 1 verwendet. Die Substanz wurde als wäßrige 1-%ige Injektionslösung unmittelbar vor der Applikation frisch hergestellt.
Bei Mäusen wurde gemäß Protokoll 1200 (Seite 91.c.) die Tumorart P 388 (Leukämie) i.p. mit 10^6 Zellen/Maus gesetzt. Die mittlere Überlebensdauer der nicht mit dem erfindungsgemäßen Wirkstoff behandelten Tiere wurde bestimmt.
Einer weiteren Gruppe von Versuchstieren wird der Wirkstoff appliziert. Der Wirkstoff wird dabei in neun Gaben in unterschiedlichen Versuchsreihen einmal zu je 100 mg/kg und in einer weiteren Versuchsreihe zu je 50 mg/kg verabreicht. In allen Fällen wird eine signifikante Verlängerungs der Lebensdauer der behandelten Testtiere gegenüber der Kontrollgruppe der nicht behandelten Tiere erzielt.

[2] = Cytostatic activity (test not described further); conditions: result in words, no test conditions given

Row | Molecule | Verlängerungsrate T/C ([1]; 50 mg/kg per dose) | Verlängerungsrate T/C ([1]; 100 mg/kg per dose) | cytostatische Wirksamkeit [2]
1 | Di-(2-hydroxy-3-brompropan)-glucamin [Beispiel 1] | 165% | 166% | cytostatisch aktiv
2 | CN(CC(O)CCl)C[C@H](O)[C@@H](O)[C@H](O)[C@H](O)CO (some centres unmarked) [entsprechende 3-Chlorverbindung] | – | – | unwirksam
3 | CN(CC(O)CBr)C[C@H](O)[C@@H](O)[C@H](O)[C@H](O)CO (some centres unmarked) [N-Methyl-N-(2-hydroxy-3-brom-propyl)-glucamin] | – | – | unwirksam
